Assay results reported in EP4702986A1, “POLYPEPTIDE AND USE THEREOF” (Biocells (Beijing) Biotech Co., Ltd., priority 2023, dated 2024).
“Also recorded” adds a separate entry of the source. Numbered stars: 1 amine (or outer) side, 2 acyl side, 3 side chain; on linkers, the order of the positions; unused ones are H or OH. Side chains are listed from the residue outwards. Peptide text beside a SMILES is read from it. * marks the point of attachment. C18 diacid = O=C(O)CCCCCCCCCCCCCCCCC(=O)*; γGlu = O=C(O)[C@H](CCC(=O)[*:2])N[*:1]; Fumaroyl = O=C(O)/C=C/C(=O)*; Lauroyl = CCCCCCCCCCCC(=O)*; AEEA = NCCOCCOCC(=O)O

What was measured:
[1] = Determination of half-lives of polypeptides (plasma, LC-MS); details: for half-life: C57 BL/6, mouse, plasma, iv
[2] = target: T1, human ETA receptor (Homo sapiens, UniProt P25101); assay: Selectivity of polypeptides on human ETA receptor (IP-One Gq kit, % of positive control ET1); format: cell-based; details: read-out: hETAR agonist activity, percentage of activity relative to ET1
T1 construct: expressed in transfected cells; host or cells: 293T-17 cells, transient transfection
T1 sequence (P25101 21-427): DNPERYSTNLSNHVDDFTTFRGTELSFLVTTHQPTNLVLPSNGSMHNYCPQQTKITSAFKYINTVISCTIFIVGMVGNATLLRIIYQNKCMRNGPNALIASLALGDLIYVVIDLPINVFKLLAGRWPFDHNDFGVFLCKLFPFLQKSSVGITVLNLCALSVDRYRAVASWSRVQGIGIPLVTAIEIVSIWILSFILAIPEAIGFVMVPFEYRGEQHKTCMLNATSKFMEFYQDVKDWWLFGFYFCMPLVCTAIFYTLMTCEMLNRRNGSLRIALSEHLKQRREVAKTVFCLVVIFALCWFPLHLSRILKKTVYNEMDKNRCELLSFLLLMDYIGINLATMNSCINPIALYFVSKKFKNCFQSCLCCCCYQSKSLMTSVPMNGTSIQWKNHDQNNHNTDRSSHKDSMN
Outline: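 293T-17 cells transiently transfected with human ETA receptor (48 h), 30,000 cells/well exposed to polypeptides for 1 h at 37°C; IP1 accumulation by HTRF (665/620 nm ratio). Activity given as % of ET1 at the same concentration after PBS-control subtraction.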

[3] = system: male SD rats; assay: in vivo; details: for Observations of Animal Status: one animal per row, observed 24 hours
Protocol: (§1) In an experiment about acute toxicity of intravenous administration, male SD rats weighing 200-230 g were dosed in a range between 480 µg/Kg and 30 µg/Kg via tail vein injection in a descending order of dosage. […] Toxic response and mortality of the rats were preliminarily observed, and time of death and doses without mortality of the rats were recorded. The level of acute toxicity of the polypeptides was preliminarily determined based on the doses without mortality.

[4] = in vivo; details: male, SD, rat, in vivo, iv
Protocol: as §1

[5] = intravenous (tail vein) 120 µg/Kg
[6] = intravenous (tail vein) 240 µg/Kg
[7] = intravenous (tail vein) 480 µg/Kg
[8] = intravenous (tail vein) 360 µg/Kg

SMILES	half-life [1] [min]	activation at 10 µM [2] [%]	activation at 100 µM [2] [%]	Observations of Animal Status ([3]; intravenous (tail vein) 30 µg/Kg)	Observations of Animal Status ([3]; intravenous (tail vein) 60 µg/Kg)	Observations of Animal Status [3, 5]	Observations of Animal Status [3, 6]	MTD at 24 h [4] [mg/kg]	AUClast 0-30 min ([1]; C57 BL/6 mice, i.v., dosage per compound 0.48, 0.96 or 1 mpk) [ng·h/mL]	Observations of Animal Status [3, 7]	acute toxicity of intravenous administration (comparison among polypeptides) ([3]; male SD rats, tail vein injection)	Observations of Animal Status [3, 8]
CCCCCCCCCCCC(=O)N[C@@H](CCC(=O)O)C(=O)NCCOCCOCC(=O)NCCCC[C@H](NC(=O)[C@H](Cc1c[nH]cn1)NC(=O)[C@H](C)NC(=O)[C@H](Cc1ccccc1)NC(=O)[C@H](Cc1ccc(O)cc1)NC(=O)[C@@H](NC(=O)[C@H](C)NC(=O)[C@H](CCC(=O)O)NC(=O)[C@H](CCC(=O)O)NC(=O)[C@H](CC(=O)O)NC(=O)/C=C/C(=O)O)C(C)C)C(=O)N[C@@H](CC(=O)O)C(=O)N[C@H](C(=O)N[C@H](C(=O)N[C@@H](Cc1c[nH]c2ccccc12)C(=O)O)[C@@H](C)CC)C(C)C [BX-238] (Fumaroyl-DEEAVYFAHK([AEEA-Glu-Lauroyl])DVIW-OH)	53	-4.74	-5.07	Breathing speeded up at 53 minutes, showed no willingness to move at 1.2 hours; found dead the next morning (estimated to have died during the night); also recorded: Breathing speeded up at 50 minutes, showed no willingness to move at 1.2 hours; found dead the next morning (estimated to have died during the night)	Developed rapid breathing at 40-45 minutes; died at 1 hour	Developed rapid breathing at 5 minutes, the eyes turned pale and purple at 14 minutes; died at 16 minutes	Developed abdominal breathing at 5-6 minutes, developed rapid breathing and collapsed at 9 minutes; died at 11 minutes	0.03				
CC[C@H](C)[C@H](NC(=O)[C@H](CC(=O)O)NC(=O)[C@H](CC(C)C)NC(=O)[C@H](Cc1c[nH]cn1)NC(=O)[C@H](C)NC(=O)[C@H](Cc1ccccc1)NC(=O)[C@H](Cc1ccc(O)cc1)NC(=O)[C@@H](NC(=O)[C@H](C)NC(=O)[C@H](CCC(=O)O)NC(=O)[C@H](CCC(=O)O)NC(=O)[C@H](CCCCNC(=O)COCCOCCNC(=O)COCCOCCNC(=O)CC[C@H](NC(=O)CCCCCCCCCCCCCCCCC(=O)O)C(=O)O)NC(=O)/C=C/C(=O)O)C(C)C)C(=O)N[C@H](C(=O)N[C@@H](Cc1c[nH]c2ccccc12)C(=O)O)[C@@H](C)CC [BX-253] (Fumaroyl-K([AEEA-AEEA-γGlu-C18 diacid])EEAVYFAHLDIIW-OH)	63	-12.9	-9.03				No abnormalities	0.48	3989	No abnormalities	lowest acute toxicity	
CC[C@H](C)[C@H](NC(=O)[C@H](CC(=O)O)NC(=O)[C@H](CC(C)C)NC(=O)[C@H](Cc1c[nH]cn1)NC(=O)[C@H](C)NC(=O)[C@H](Cc1ccccc1)NC(=O)[C@H](Cc1ccc(O)cc1)NC(=O)[C@@H](NC(=O)[C@H](C)NC(=O)[C@H](CCC(=O)O)NC(=O)[C@H](CCCCNC(=O)COCCOCCNC(=O)COCCOCCNC(=O)CC[C@H](NC(=O)CCCCCCCCCCCCCCCCC(=O)O)C(=O)O)NC(=O)[C@H](CC(=O)O)NC(=O)/C=C/C(=O)O)C(C)C)C(=O)N[C@H](C(=O)N[C@@H](Cc1c[nH]c2ccccc12)C(=O)O)[C@@H](C)CC [BX-254] (Fumaroyl-DK([AEEA-AEEA-γGlu-C18 diacid])EAVYFAHLDIIW-OH)							No obvious abnormalities; also recorded: Developed rapid breathing, the limbs turned purple, developed breathing depression, and limbs moved like swimming at 15 minutes after administration; then died at 20 minutes after administration; also recorded: Developed rapid breathing, the limbs turned purple, and had weak limbs at 14 minutes after administration; died of breathing depression at 21 minutes after administration	0.12		The body turned purple at 22 minutes after administration; died at 25 minutes after administration		The body turned purple at 16 minutes after administration; died at 26 minutes after administration
CC[C@H](C)[C@H](NC(=O)[C@H](CC(=O)O)NC(=O)[C@H](CC(C)C)NC(=O)[C@H](Cc1c[nH]cn1)NC(=O)[C@H](C)NC(=O)[C@H](Cc1ccccc1)NC(=O)[C@H](Cc1ccc(O)cc1)NC(=O)[C@@H](NC(=O)[C@H](C)NC(=O)[C@H](CCC(=O)O)NC(=O)[C@H](CCC(=O)O)NC(=O)[C@H](CC(=O)O)NC(=O)[C@H](CC(=O)O)NC(=O)COCCOCCNC(=O)COCCOCCNC(=O)CC[C@H](NC(=O)CCCCCCCCCCCCCCCCC(=O)O)C(=O)O)C(C)C)C(=O)N[C@H](C(=O)N[C@@H](Cc1c[nH]c2ccccc12)C(=O)O)[C@@H](C)CC [BX-255] ({C18 diacid-γGlu-AEEA-AEEA}-DDEEAVYFAHLDIIW-OH)						No obvious adverse reactions in the first 1 hour; breathing became slightly faster at nearly 2 hours; was in good condition and recovered when observed the next day; also recorded: Showed no willingness to move at 9 minutes; recovered at 1 hour and 10 minutes; also recorded: Lay still and showed no willingness to move at 12 minutes; became active at 17 minutes; signs of pain were observed in the animal through pupil observation; no pain at 28 minutes; also recorded: Developed difficulty in breathing at 17 minutes, recovered to normal in about 10 seconds; signs of pain were observed in the animal through pupil observation; no pain at 28 minutes	No obvious reaction in the first 27 minutes after administration; breathing speeded up at 27 minutes; died at 49 minutes after administration; also recorded: No obvious reaction in the first 24 minutes after administration; breathing speeded up at 27 minutes; died at 43 minutes after administration	0.12		The body turned purple at 23 minutes after administration; died at 29 minutes after administration		The body turned purple at 12 minutes after administration; died at 22 minutes after administration
